Literature values in patent publication US6524619B2, “Dosage forms useful for modifying conditions and functions associated with hearing loss and/or tinnitus” (Chronorx, Inc., priority 2000, dated 2003).
Like-named read-outs stand apart in the source and are kept apart here.

Columns and labels:
[1] = not given; remark: listed apart in the source
[2] = system: noise-induced permanent hearing threshold shifts (NIPTS); settings: 167 mg elemental Mg^2+ daily, 2 months, 300 recruits
NMDA receptor = settings: rat, iontophoresis
[3] = in vivo
red cell membrane = settings: 300 mg tid after meals for 3 months
GSHPx [4] = settings: following supplementation
RBC GSH system = settings: selenium treatment
peritoneal macrophages = settings: mice
tinnitus and SNHL = settings: marginally Zn^2+ deficient elderly adults
[5] = not given; remark: listed apart in the source
[6] = one small study
[7] = levels up to 1 mg per day
[8] = system: hydrogen peroxide-induced platelet aggregation
[9] = system: outer cochlear hair cells; settings: rat, postmortem
GSHPx [10] = settings: within 30 minutes, exogenously administered
[11] = 3 mg ingested, within 20 min
[12] = 80 mg orally
[13] = 100 mg oral
[14] = not given; remark: listed apart in the source
[15] = system: blood viscosity and red cell membrane lipid peroxidation; settings: 300 mg tid 3 months, Type 2 diabetes mellitus
[16] = humans, 200 mg oral dose
[17] = rats, oral (C14) LA
[18] = system: bovine aortic endothelial cells (BAECs); settings: LA added before AGE exposure
senile deafness = settings: 1 microgram/day for 6 to 10 months, 12 patients suspected of abnormal bone metabolism

Compound: CC(C)(C)[C@]1(O)CC2OC(=O)CC23C(=O)OC2OC(=O)[C@H](O)C231 (some centres unmarked) [Bilobalide]
- bioavailability coefficient (FAUC), mean (given orally during fasting): 0.79(+/−0.3)

Compound: COC1=C(OC)C(=O)C(C/C=C(\C)CC/C=C(\C)CC/C=C(\C)CC/C=C(\C)CC/C=C(\C)CC/C=C(\C)CC/C=C(\C)CC/C=C(\C)CC/C=C(\C)CCC=C(C)C)=C(C)C1=O [CoQ10, Coenzyme Q10]
- increase of CoQ10 in plasma ([1]; granular preparations): 168%
- elevation of CoQ10 in plasma ([1]; supplemental oil-based capsules): 178%

Compound: [Mg+2] [Mg^2+, Magnesium]
- NIPTS frequency and severity [2]: significantly more frequent and more severe in the placebo group
- excitatory response of the cortical striatum (NMDA receptor): potent attenuation
- maximum intestinal bulk absorption [3]: 8 mEq per meal

Compound: Cc1c(C)c2c(c(C)c1O)CC[C@@](C)(CCC[C@H](C)CCC[C@H](C)CCCC(C)C)O2 [alpha-tocopherol, D, alpha-tocopherol]
- reduction of lipid peroxidation stress in red cell membrane (MDA) (red cell membrane): 0.17 ± 0.13 nmol
- GSHPx activities (GSHPx [4]): increase as much as twofold

Compound: [Se] [Selenium]
- elevation of RBC GSHPx (RBC GSH system): 64%
- reduction in the RBC oxidized GSH content (RBC GSH system): 39%
- increase in GSH content (RBC GSH system; RBC): 11%
- increase in glutathione reductase activities (RBC GSH system; RBC): 57%
- increase in GSH content in peritoneal macrophages (peritoneal macrophages): 36%
- increase in GSHPx activity in peritoneal macrophages (peritoneal macrophages): 30%
- reduction in cell-mediated oxidation of LDL and aortic atherosclerotic lesions (peritoneal macrophages): 46%

Compound: [Zn+2] [Zn^2+, Zinc]
- reduction of tinnitus and SNHL (tinnitus and SNHL): about one-third
- increase of mean plasma Zn^+2 above pre-load levels ([5]; 11-fold increase in intake): 37%
- ingested Zn^+2 entering the plasma ([5]; in vivo): About 37%
- time by which gastrointestinal absorption is essentially completed ([5]; in vivo): ≤ 4 h
- excitatory response of the cortical striatum (NMDA receptor): potent attenuation

Compound: [Cr] [Cr, Chromium]
- average apparent net absorption of Cr [6]: 1.8%
- signs of toxicity [7]: no documented signs of toxicity

Compound: C[C@@H]1C(=O)O[C@H]2C[C@@]34[C@H]5C[C@@H](C(C)(C)C)[C@]36[C@@H](OC(=O)[C@@H]6O)O[C@@]4(C(=O)O5)[C@]21O [Ginkgolide A]
- bioavailability coefficient (FAUC), mean (given orally during fasting): 0.80 (+/−0.09)

Compound: O=C(O)c1cccnc1 [Nicotinic acid, reference compound]
- inhibitory effect upon hydrogen peroxide-induced platelet aggregation [8]: no inhibitory effect

Compound: COc1ccc2[nH]cc(CCNC(C)=O)c2c1 [Melatonin, N-acetyl-5-methoxytryptamine]
- prolongation of hair cell activity after death compared to untreated animals [9]: up to 7 times
- rise in GSHPx activity in the brain (GSHPx [10]): 2 fold
- serum melatonin [11]: 3561 ± 1201 pg/mL
- absorption constant (ka) [12]: 1.72 h⁻¹
- elimination constant (kel) [12]: 0.87 h⁻¹
- time of peak serum melatonin after administration [12]: 60 to 150 min
- time peak serum melatonin remains stable [12]: approximately 1.5 hours
- excitatory response of the cortical striatum (NMDA receptor): potent attenuation

Compound: CC1C(=O)OC2C(O)C34C5CC(C(C)(C)C)C36C(OC(=O)C6O)OC4(C(=O)O5)C12O (centres unmarked) [Ginkgolide B]
- bioavailability coefficient (FAUC), mean (in vivo, po): 0.88(+/−0.21)

Compound: d5-CoQ10
- time of second plasma peak after dosing ([13]; most of the subjects): 24 h
- mean plasma CoQ10 level peak ([13]; sixteen healthy male subjects): 1.004+/−0.37 micrograms/ml

Compound: NC(=O)c1cccnc1 [standard nicotinamide, nicotinamide]
- increase in the AUC ([14]; 10-fold increase in the dose): 62 fold
- AUC relative to Enduramide ([14]; higher doses): 1.7 times

Compound: Cc1c(C)c2c(c(C)c1OC(=O)c1cccnc1)CC[C@@](C)(CCC[C@H](C)CCC[C@H](C)CCCC(C)C)O2 [Alpha-tocopherol nicotinate, alpha tocopherol nicotinate]
- reduction of malondialdehyde (MDA) in red cell membrane [15]: 0.17 ± 0.13 nmol/L
- reduction of blood viscosity ([15]; gamma=1.5 s(−1)): −2.23 +/−2.82
- inhibitory effect upon hydrogen peroxide-induced platelet aggregation [8]: greater than that of either vitamin E alone or the simultaneous use of vitamin E and nicotinic acid

Compound: O=C(O)CCCCC1CCSS1 (centres unmarked) [LA, 1,2-dithiolane-3-pentanoic acid]
- absolute bioavailability [16]: 29.1+/−10.3%
- plasma concentration-time curve area (FAUC) relative to intravenous administration [17]: 66%
- depletion of GSH and ascorbic acid [18]: completely prevents depletion of GSH and ascorbic acid

Compound: C=C1/C(=C\C=C2/CCC[C@]3(C)[C@@H]([C@H](C)CCCC(C)C)CC[C@@H]23)C[C@@H](O)C[C@@H]1O [1 alpha-(OH)D3]
- hearing improvement (senile deafness): hearing improvement in six ears (four patients)
